In one assay the target is T1, F508del/F508del CFTR (Homo sapiens, UniProt P13569, DEL508-508).
T1 construct: cells isolated from CF patients with the homozygous mutation; endogenous in cells; host or cells: primary human bronchial epithelial (hBE) cells from CF patients homozygous for F508del
Nature of the assay: Trans-Epithelial Current Clamp (TECC) assay using primary human bronchial epithelial cells. The following applies: for Emax (% Dual): maximum percent activity relative to positive control (co-corrector 0.15 μM + potentiator 0.45 μM = 100%), primary hBE cells F508del/F508del; for EC50: primary hBE cells homozygous F508del/F508del, test C2 corrector with co-corrector and potentiator, 18-24 hours at 37° C., equivalent CFTR current (IEQ)/AUC. It is filed as cell-based. The text has this: A cell-based assay was developed using the primary human bronchial epithelial cells (hBE cells) with F508del/F508del CFTR and other mutations.
Primary human bronchial epithelial (hBE) cells from CFTR patients with homozygous F508del/F508del mutation were expanded from 1×10^6 to 250×10^6 cells (Neuberger, T et al., 2011, Methods Mol Biol 741:39-54). For this purpose, cells isolated from CF patients with the homozygous mutation, procured from the CF center tissue procurement and cell culture core at the Marsico Lung Institute at UNC (Randell), the Cystic Fibrosis translational research center at McGill University (University), and Rosalind Franklin University Medical School (RFUMS) were seeded onto 24 well Corning (Cat #3378) filter plates that were coated with 3T3 conditioned media and grown at an air-liquid interface for 35 days using an Ultroser® G supplemented differentiation media. All the primary human bronchial epithelial cells were collected in accordance with institutional review board approval protocols. Apical surface mucus was removed 72 hours before the experiment by incubating the apical surface of the cells for 30 minutes with 3 mM dithiothreitol (DTT) prepared in Dulbecco's phosphate buffered saline (DPBS) with Ca^2+ and Mg^2+. This was followed with aspiration of the mucus from the apical surface along with DPBS. The apical surface was re-washed with phosphate buffered saline (PBS) incubated for 30 minutes followed with aspiration. These hBE cells were then incubated with the desired concentrations of the test C2 corrector compounds along with co-corrector, 4-[(2R,4R)-4-({[1-(2,2-difluoro-1,3-benzodioxol-5-yl)cyclopropyl]carbonyl}amino)-7-(difluoromethoxy)-3,4-dihydro-2H-chromen-2-yl]benzoic acid and potentiator, (5-{3-amino-5-[4-(trifluoromethoxy)benzene-1-sulfonyl]pyridin-2-yl}-1,3,4-oxadiazol-2-yl)methanol, for 18-24 hours at 37° C., 5% CO2. The desired concentrations of the correctors and potentiator compounds were prepared from the 10 mM stocks in differentiation media and were always applied on the basolateral side of the epithelial cells. We also used an assay format where a fixed concentration of potentiator was added chronically along with the corrector compounds. This chronic treatment with the potentiator helped eliminate any interaction that might happen with CFTR modulators (correctors and potentiators) and thereby determined the true efficacy of the modulator combinations reflective of clinical relevance.
The assay uses a Transepithelial Current Clamp (TECC) (Vu, C B et al., 2017; J Med Chem 60:458-473) instrument that can measure the functionality of the mutated channel by measuring the equivalent CFTR current (IEQ) generated by the polarized primary epithelial cells. We used a TECC-24 with a 24-channel electrode manifold allowing for the simultaneous measurement of the transepithelial voltage, VT, and transepithelial resistance, RT, under current clamp conditions, from 24 filters using a 24 well Costar filter plate. The design of the filters in the 24 well filter plates was exactly the same as the design of an individual Transwell filter used in the classical Ussing Chamber with a surface area of 0.33 cm^2. Each measured VT values were corrected for the electrode offset potential measured using buffer alone in a separate plate, and each measured RT values were then corrected for the combined solution series and empty filter resistances. The corrected VT and RT values were then used to calculate the equivalent current, IEQ using Ohm's law (IEQ=VT/RT). The area under the curve (AUC) for the time period between the forskolin peak IEQ response and at the time of bumetanide addition was also calculated using a one-third trapezoid method, in addition to calculating the IEQ. The assay was run in a 24-well format and all 24-wells were measured at the same time point giving a higher throughput for this assay. […]

In a further assay the target is T2, F508delCFTR (Homo sapiens, UniProt P13569, DEL508-508).
T2 construct: expressed in transfected cells; host or cells: CFBE41o- human lung-derived epithelial cell line, doxycycline-inducible expression
Nature of the assay: Cell Surface Expression-Horse Radish Peroxidase (CSE-HRP) assay in CFBE41o-F508delCFTR-HRP cells. It is filed as cell-based. The following applies: for EC50: CFBE41o-F508delCFTR-HRP cells, 18-24 hours at 33° C., luminescence; for Maximum % activity (without co-corrector) / Maximum % activity (with co-corrector): normalized to on-plate positive control corrector (2 μM). As for the experimental part: A cellular assay for measuring the F508delCFTR cell surface expression after correction with test compounds either without or with a co-corrector (2 μM of 3-[(2R,4R)-4-({[1-(2,2-difluoro-1,3-benzodioxol-5-yl)cyclopropyl]carbonyl}amino)-7-methoxy-3,4-dihydro-2H-chromen-2-yl]benzoic acid), was developed in human lung derived epithelial cell line (CFBE4lo-) (Veit G et al, (2012) Mol Biol Cell. 23(21): 4188-4202). The development was achieved by expressing the F508delCFTR mutation along with a horseradish peroxidase (HRP) in the fourth exofacial loop, and then measuring the HRP activity using luminescence readout from these cells, CFBE4lo-F508delCFTR-HRP, that were incubated overnight with the test corrector compounds, either without or with the co-corrector. For this primary assay, the CFBE4lo-F508delCFTR-HRP cells were plated in 384-well plates (Greiner Bio-one; Cat 781080) at 4,000 cells/well along with 0.5 μg/mL doxycycline to induce the F508delCFTR-RP expression and further incubated at 37° C., 5% CO2 for 68-72 hours. The test compounds were then added either without or with a co-corrector at the required concentrations and further incubated for 18-24 hours at 33° C. The highest concentration tested was 20 μM or 30 μM (GI-1 to GIII-36) with an 8-point concentration response curve using a 3-fold dilution in both the test compound without or with the co-corrector. Three replicate plates were run to determine one EC50. All plates contained negative controls (dimethyl sulfoxide, DMSO) and positive control (2 μM or 3 μM (GI-1 to GIII-36) of 3-[(2R,4R)-4-({[1-(2,2-difluoro-1,3-benzodioxol-5-yl)cyclopropyl]carbonyl}amino)-7-methoxy-3,4-dihydro-2H-chromen-2-yl]benzoic acid) as well as on-plate concentration response of the positive control. Post incubation, the plates were washed 5× times with Dulbecco's phosphate buffered saline (DPBS), followed by the addition of the HRP substrate, luminol (50 μL), and measuring the HRP activity using luminescence readout on EnVision® Multilabel Plate Reader (Perkin Elmer; product number 2104-0010). The raw counts from the experiment were analyzed using Accelrys® Assay Explorer v3.3.
Z′ greater than 0.5 was used as passing quality control criteria for the plates. The Z′ is defined as:
1−[3*SDPositive Control+3*SDNegative Control/Absolute (MeanPositive Control−MeanNegative Control)]
The % activity measured at each of the 8 test concentrations of the test compound added either without or with a co-corrector (2 μM or 3 μM (GI-1 to GIII-36) of 3-[(2R,4R)-4-({[1-(2,2-difluoro-1,3-benzodioxol-5-yl)cyclopropyl]carbonyl}amino)-7-methoxy-3,4-dihydro-2H-chromen-2-yl]benzoic acid) was normalized to the on-plate positive control using the following formulae:
% activity (Test compound without co-corrector)=[(test compound without co-corrector response−DMSO response)/(positive control response−DMSO response)]*100
% activity (Test compound with co-corrector)=[(test compound with co-corrector response−DMSO response)/(positive control response−DMSO response)]*100
The maximum % activity achieved for the test compound either without or with a co-corrector at any tested concentration is presented in Table 3 along with the respective EC50's calculated using the following general sigmoidal curve with variable Hill slope equation (described as Model 42 in the Accelrys® Assay Explorer v3.3 software):
General sigmoidal curve with concentration, response, top, bottom, EC50 and Hill slope. This model describes a sigmoidal curve with an adjustable baseline, a. The equation can be used to fit curves where response is either increasing or decreasing with respect to the independent variable, “x”.

[1] abbreviates: with co-corrector (2 μM), read-out: EC50 (with co-corrector).
Where [2] appears, read: without co-corrector, read-out: EC50 (without co-corrector).

Read-outs that look alike come from different tables or passages of the source.

T1 sequence (P13569 with tags, fused parts or gaps DEL508-508): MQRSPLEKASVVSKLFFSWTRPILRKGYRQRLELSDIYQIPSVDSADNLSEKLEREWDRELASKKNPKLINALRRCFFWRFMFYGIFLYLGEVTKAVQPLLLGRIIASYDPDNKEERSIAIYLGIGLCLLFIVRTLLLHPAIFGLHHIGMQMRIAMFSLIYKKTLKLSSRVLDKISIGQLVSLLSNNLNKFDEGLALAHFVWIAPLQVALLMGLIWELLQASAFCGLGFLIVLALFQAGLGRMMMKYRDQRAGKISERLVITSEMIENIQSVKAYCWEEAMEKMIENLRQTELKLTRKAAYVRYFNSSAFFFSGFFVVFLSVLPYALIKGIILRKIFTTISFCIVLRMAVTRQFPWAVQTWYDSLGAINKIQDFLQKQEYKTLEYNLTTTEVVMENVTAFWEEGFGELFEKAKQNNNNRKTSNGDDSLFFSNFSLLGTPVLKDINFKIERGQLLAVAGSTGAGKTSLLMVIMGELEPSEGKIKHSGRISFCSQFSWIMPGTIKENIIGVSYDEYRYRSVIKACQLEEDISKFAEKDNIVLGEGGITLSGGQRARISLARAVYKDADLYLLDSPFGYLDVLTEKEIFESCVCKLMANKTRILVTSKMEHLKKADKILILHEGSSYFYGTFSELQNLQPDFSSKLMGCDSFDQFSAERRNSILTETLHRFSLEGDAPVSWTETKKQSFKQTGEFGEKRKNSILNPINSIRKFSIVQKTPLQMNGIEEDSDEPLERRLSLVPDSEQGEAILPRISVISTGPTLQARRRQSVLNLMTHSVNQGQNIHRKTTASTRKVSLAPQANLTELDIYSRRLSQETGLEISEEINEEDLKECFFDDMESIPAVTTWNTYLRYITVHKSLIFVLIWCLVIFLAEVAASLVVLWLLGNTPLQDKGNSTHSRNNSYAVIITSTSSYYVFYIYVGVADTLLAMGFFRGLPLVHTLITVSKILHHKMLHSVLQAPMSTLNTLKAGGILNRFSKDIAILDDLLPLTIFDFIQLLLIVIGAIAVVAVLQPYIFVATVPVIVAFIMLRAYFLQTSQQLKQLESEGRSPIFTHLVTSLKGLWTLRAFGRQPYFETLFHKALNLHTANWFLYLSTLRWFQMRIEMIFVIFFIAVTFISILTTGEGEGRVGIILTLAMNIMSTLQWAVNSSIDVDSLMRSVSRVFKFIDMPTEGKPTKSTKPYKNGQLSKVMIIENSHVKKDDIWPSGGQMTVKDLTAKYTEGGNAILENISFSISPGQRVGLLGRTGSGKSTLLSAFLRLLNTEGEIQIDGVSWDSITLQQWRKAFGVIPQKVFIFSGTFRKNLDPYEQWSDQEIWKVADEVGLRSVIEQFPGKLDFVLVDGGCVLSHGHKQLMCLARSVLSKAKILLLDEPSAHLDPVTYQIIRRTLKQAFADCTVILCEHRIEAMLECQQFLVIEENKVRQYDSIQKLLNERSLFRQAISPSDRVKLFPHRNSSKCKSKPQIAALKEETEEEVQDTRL
T2 sequence (P13569 with tags, fused parts or gaps DEL508-508): as above

Regarding `COc1ccc(C)cc1[C@]1(C(=O)NS(=O)(=O)c2cccc3nc(C)ccc23)C[C@@H]1c1cnc(OC)c(F)c1` [Example 76, (1S,2R)-2-(5-fluoro-6-methoxypyridin-3-yl)-1-(2-methoxy-5-methylphenyl)-N-(2-methylquinoline-5-sulfonyl)cyclopropane-1-carboxamide], the “Emax (% Dual)” value at F508del/F508del CFTR stood at 269 % Dual. In addition, the EC50 turned out to be 0.0024 µM on F508del/F508del CFTR, 0.989 µM on F508delCFTR (setting [1]) and 2.14 µM on F508delCFTR (setting [2]).

As to `COc1ccc(C)cc1[C@@]1(C(=O)NS(=O)(=O)c2cccc3nc(C)ccc23)C[C@H]1c1cccc(F)c1` (single isomer, unassigned) [Example 21], the “Emax (% Dual)” value at F508del/F508del CFTR is reported as 213 % Dual. Moreover, the values for the EC50 on F508del/F508del CFTR, at F508delCFTR (setting [1]) and on F508delCFTR (setting [2]) were 0.002 µM, 0.506 µM and 1.09 µM, respectively.

As for `COc1ccc(C)cc1[C@@]1(C(=O)NS(=O)(=O)c2cccc3nc(C)ccc23)C[C@H]1c1ccccc1C(F)(F)F` (single isomer, unassigned) [Example 31], at F508del/F508del CFTR, the “Emax (% Dual)” value is listed as 307 % Dual. Moreover, the values for the EC50 at F508del/F508del CFTR, at F508delCFTR (setting [1]) and at F508delCFTR (setting [2]) were 0.0062 µM, 0.163 µM and 0.239 µM, respectively. The “Maximum % activity (without co-corrector)” value on F508delCFTR (without co-corrector) is 776%.

In the case of `COc1ccc(C)cc1[C@]1(C(=O)NS(=O)(=O)c2cccc3nc(C)ccc23)C[C@@H]1c1ccc(N(C)C)nc1` [Example 68, (1S,2R)-2-[6-(dimethylamino)pyridin-3-yl]-1-(2-methoxy-5-methylphenyl)-N-(2-methylquinoline-5-sulfonyl)cyclopropane-1-carboxamide], at F508del/F508del CFTR, the “Emax (% Dual)” value was determined as 217 % Dual. Besides, the EC50 on F508del/F508del CFTR was 0.0211 µM; on F508delCFTR (setting [1]) it was 1.12 µM; on F508delCFTR (setting [2]) it was 2.76 µM. Moreover, the “Maximum % activity (without co-corrector)” value on F508delCFTR (without co-corrector) turned out to be 657%.

Turning to `COc1ncc([C@@H]2C[C@]2(C(=O)NS(=O)(=O)c2cccc3nc(C)ccc23)c2cc(C)ccc2OC)cn1` (racemic) [Example 36, rac-(1r,2s)-1-(2-methoxy-5-methylphenyl)-2-(2-methoxypyrimidin-5-yl)-N-(2-methylquinoline-5-sulfonyl)cyclopropane-1-carboxamide], the “Emax (% Dual)” value at F508del/F508del CFTR was found to be 173 % Dual. In addition, the EC50 is > 0.3 µM at F508del/F508del CFTR, 2.48 µM at F508delCFTR (setting [1]) and 4.32 µM at F508delCFTR (setting [2]). At F508delCFTR (with co-corrector (2 μM)), the “Maximum % activity (with co-corrector)” value is 666%. At F508delCFTR (without co-corrector), the “Maximum % activity (without co-corrector)” value amounted to 248%.

`COc1ccc(C)cc1[C@]1(C(=O)NS(=O)(=O)c2cccc3nc(C)ccc23)C[C@@H]1c1ccc(C(C)C)nn1` [Example 69, (1S,2S)-1-(2-methoxy-5-methylphenyl)-N-(2-methylquinoline-5-sulfonyl)-2-[6-(propan-2-yl)pyridazin-3-yl]cyclopropane-1-carboxamide]: at F508del/F508del CFTR, the “Emax (% Dual)” value came out at 111 % Dual. Besides, the figures for the EC50 on F508del/F508del CFTR, at F508delCFTR (setting [1]) and on F508delCFTR (setting [2]) were > 0.3 µM, 3.43 µM and 6.01 µM, respectively. For the same compound, on F508delCFTR (with co-corrector (2 μM)), the “Maximum % activity (with co-corrector)” value is listed as 495%. The “Maximum % activity (without co-corrector)” value at F508delCFTR (without co-corrector) was determined as 170%.

`COc1ccc(C)cc1[C@]1(C(=O)NS(=O)(=O)c2cccc3nc(C)ccc23)C[C@@H]1c1cccc(OC(C)C)n1` [Example 97, (1S,2S)-1-(2-methoxy-5-methylphenyl)-N-(2-methylquinoline-5-sulfonyl)-2-{6-[(propan-2-yl)oxy]pyridin-2-yl}cyclopropane-1-carboxamide]: at F508del/F508del CFTR, the “Emax (% Dual)” value was 198 % Dual. The EC50 on F508del/F508del CFTR was 0.0009 µM; on F508delCFTR (setting [1]) it was 0.359 µM; on F508delCFTR (setting [2]) it was 0.988 µM.

`COc1ccc(C)cc1[C@]1(C(=O)NS(=O)(=O)c2cccc3nc(C)ccc23)C[C@@H]1c1cnc(OC)c(C)c1` [Example 103, (1S,2R)-1-(2-methoxy-5-methylphenyl)-2-(6-methoxy-5-methylpyridin-3-yl)-N-(2-methylquinoline-5-sulfonyl)cyclopropane-1-carboxamide]: the “Emax (% Dual)” value at F508del/F508del CFTR is reported as 266 % Dual. Besides, the values for the EC50 at F508del/F508del CFTR, on F508delCFTR (setting [1]) and at F508delCFTR (setting [2]) were 0.0018 µM, 0.587 µM and 0.714 µM, respectively. Besides, the “Maximum % activity (without co-corrector)” value at F508delCFTR (without co-corrector) is 800%.

In the case of `COc1nccc([C@H]2C[C@@]2(C(=O)NS(=O)(=O)c2cccc3nc(C)ccc23)c2cc(C)ccc2OC)n1` (single isomer, unassigned) [Example 98], the “Emax (% Dual)” value at F508del/F508del CFTR is 201 % Dual. Further, the EC50 at F508del/F508del CFTR was determined as 0.021 µM; on F508delCFTR (setting [1]) it was 0.804 µM; at F508delCFTR (setting [2]), 1.44 µM.

The values are drawn from patent US20240043386A1, “Modulators of the Cystic Fibrosis Transmembrane Conductance Regulator Protein and Methods of Use” (AbbVie Global Enterprises Ltd., priority 2021, published 2024).
